In patent US6709830B2, “Methods for modulating the activation of a lymphocyte expressed G protein coupled receptor involved in cell proliferation, autoimmunity and inflammation” (The Regents of the University of California, priority 1997, dated 2004):
Entries after “also recorded” stand apart in the source; their conditions may differ.

Assays:
G2A [1] = target: T1, G2A (Mus musculus, UniProt Q9Z282); test: Radioligand binding assay with cell homogenates of HEK 293 G2A.GFP cells; conditions: for competition for binding of [3H] 16:0 LPC / [3H] SPC to G2A: radioligand 1 nM, unlabelled lipids 100 nM, HEK 293 G2A.GFP
T1 construct: expressed in transfected cells; host or cells: MCF 10A (human breast epithelial cells, no endogenous G2A), plasmid pEXV3 G2A.GFP
T1 sequence (Q9Z282 1-382): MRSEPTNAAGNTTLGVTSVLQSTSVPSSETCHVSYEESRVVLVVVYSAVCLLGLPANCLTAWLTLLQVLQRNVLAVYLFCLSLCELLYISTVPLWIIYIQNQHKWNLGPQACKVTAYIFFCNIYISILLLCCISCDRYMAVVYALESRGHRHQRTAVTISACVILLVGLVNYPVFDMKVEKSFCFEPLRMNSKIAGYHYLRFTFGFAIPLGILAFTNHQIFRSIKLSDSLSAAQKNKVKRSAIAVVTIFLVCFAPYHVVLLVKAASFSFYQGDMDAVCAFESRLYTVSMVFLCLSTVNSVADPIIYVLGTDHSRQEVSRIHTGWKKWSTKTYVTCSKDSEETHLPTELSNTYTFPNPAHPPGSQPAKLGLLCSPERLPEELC
Procedure: To characterise the binding of LPC and SPC to G2A, we performed radioligand binding assays as described previously (Xu, Y, e al, Nature Cell Biology, 2: pp261-267, 2000). [^3H] 16:0 LPC and [^3H] SPC bound to cell homogenates from G2A expressing HEK 293 cells in a time-dependent manner and reached equilibrium after 60 minutes incubation at 4° C. (FIGS. 5A and B). […] LPC and [^3H] SPC. Binding of [^3H] LPC and [^3H] […] The maximum binding capacities for LPC and SPC were approximately 1,503 fmole/10^5 cells and 1,840 fmole/10^5 cells respectively.
Binding assay HEK 293 GFP or HEK 293 G2A.GFP cells were serum starved for 20 hours and subsequently collected in PBS/EDTA. Pelleted cells were stored at −80° C. until use. Frozen cells (10^6 cells/ml) were homogenized in “binding buffer” containing 20 mM Tris-HCl pH 7.5, 100 mM NaCl, 15 mM NaF, 0.2 mM PMSF, 1 mM MgCl2 and 4 mg/ml fatty acid-free BSA in a tight-fit glass Dounce homogeniser. Assays were performed in 96-well plates in triplicate with 100 μl cell homogenate (equivalent to 10^5 cells/well). Varying amounts of [^3H] 16:0 LPC or [^3H] SPC were added to cell homogenates in 50 μl of binding buffer in the presence or absence of cold 16:0 LPC or SPC, or other competitors. Plates were incubated at 4° C. for 2 hours, or for the indicated times. Cell-bound [^3H] LPC or [^3H] SPC was collected onto a filter (Printed Filtermat A, Wallac, Gaithersburg, Md.) using an automated cell harvester (HARVESTER 96, Tomtec, Orange, Conn.). A pause wash programme (five cycle washes) was used. Filters were presoaked in 1% polyethyleneimine (Sigma) to prevent nonspecific binding, dried, sealed in bags (Sample Bag, Wallac) with 4.5 ml Betaplate “Scint” scintillation cocktail (Wallac), and counted in a 1450 Microbeta Trilux Liquid Scintillation and Luminescence Counter (Wallac). Specific binding was calculated by subtraction of nonspecific binding (binding detected in the presence of 100-fold excess unlabelled lipid) from total binding.

G2A [2] = target: T1, G2A; test: Calcium assay ([Ca2+]i, Fura-2) in G2A.GFP transfected MCF 10A cells; format: cell-based; conditions: for desensitisation to subsequent stimulation with LPC or SPC (1 μM): pretreatment 5 minutes with LPC 1 μM or SPC 10 μM (b23 prints SPC 1.0 μM); for transient increase in [Ca2+]i: LPC 0.1 μM, SPC 0.1 μM, LPA 1 μM, PAF 0.1 μM, ATP 20 μM
Procedure: (§1) MCF 10A cells were cultured in specialised glass-bottom dishes (Bioptech, Inc., Butler, Pa.) and loaded with Fura-2/AM ([…]; Molecular Probes) at 37° C. for 30 minutes in HEPES buffered saline (pH 7.4) containing 125 mM NaCl, 5 mM KCl, 1.2 mM MgSO4, 11 mM glucose, 1.8 mM CaCl2, 25 mM HEPES, 0.2% BSA. Loaded cells were washed, placed in HEPES buffeted saline without BSA, and incubated for 30 minutes at ambient temperature ensure dye hydrolysis by cytosolic esterases. Using a dual-wavelength spectrofluorometer (RFK-6002, Photon Technology Int'l, So. Brunswick, N.J.) coupled to an inverted fluorescence microscope (Olympus, IX-70, Lake Success, N.Y.), GFP-positive cells were identified using an excitation wavelength of 488 nm, a dichroic 505 nm long-pass and an emitter bandpass of 535 nm (Chroma Technology, Brattleboro, Vt.). [Ca^2+], measurements were performed on individual GFP-positive cells at excitation wavelengths of 340 nm and 380 nm, and an emission wavelength of 510 nm. Prior to data acquisition, background fluorescence (areas without cells) was measured and automatically subtracted from subsequent measurements. Agonists were diluted in HEPES buffered saline and solution changes accomplished by rapidly aspirating the buffer and replacing it with HEPES buffered saline containing the specific agonist. Fura-2 fluorescence signals (340 nm, 380 nm and the 340/380 ratio) originating from individual GFP-positive cells were continuously monitored at a sampling frequency of 25 Hz and collected using a software package from Photon Technology International (Felix™). Conversion of the 340 nm/380 nm ratio value into [Ca^2+]i was estimated by comparing the cellular fluorescence ratio with ratios acquired using Fura-2 (free acid) in buffers containing known Ca^2+ concentrations. [Ca^2+]i was then calculated as described by Grynkiewicz, et al (Grynkiewicz, G, et al, J Biol Chem, 260: pp3440-3450, 1985). All assays were performed in assay buffers containing 1 mM EGTA to exclude measurement of calcium influx.
(§2) To address whether G2A is a lysophospholipid receptor, we examined signalling events in cells ectopically expressing G2A as functional correlates of receptor activation. […] [Ca^2+]i measurements were performed in MCF 10A cells transfected with plasmids encoding green fluorescent protein (GFP) tagged G2A (pEXV3 G2A.GFP) (Kabarowski, J H S, et al, PNAS, 97: pp12109-12114, 2000) or GFP as described (Yan Xu and Derek S. Damron, Methods in Molecular Medicine, 39: Ovarian Cancer: Methods and Protocols, pp611-619, 2000). […] Similarly, dose-dependent responses of G2A.GFP transfected cells to SPC were observed, with an EC50 of approximately 0.4 μM (FIG. 4B). […] Responses to these agonists were not affected by G2A.GFP expression (FIG. 4A, middle and lower panels).

MCF 10A cells = test: Calcium assay ([Ca2+]i, Fura-2) in parental or pEXV3 GFP transfected MCF 10A cells (control); format: cell-based, human; conditions: SPC or LPC up to 10 μM, LPA 1 μM, PAF 0.1 μM, ATP 20 μM
Procedure: as §1, §2

G2A.GFP fusion receptor = target: T2, G2A.GFP fusion receptor (Mus musculus, UniProt Q9Z282); test: Internalisation of G2A.GFP in HEK 293 G2A.GFP cells (confocal microscopy); format: cell-based; conditions: lipid 0.1 μM, 2 hours, serum starved HEK 293 G2A.GFP cells
T2 construct: expressed in transfected cells; host or cells: HEK 293 cells infected with amphotropic MSCV G2A.GFP retrovirus
T2 sequence (Q9Z282 1-382): T1 sequence (Q9Z282 1-382)
Procedure: Agonist dependent receptor internalisation is a feature of GPCRs. G2A.GFP expressing HEK 293 cells (HEK 293 G2A.GFP) were generated by infection with amphotropic MSCV G2A.GFP retroviruses. In serum starved HEK 293 G2A.GFP cells, G2A.GFP is expressed predominantly on the plasma membrane. LPC (0.1 μM), as well as SPC (1 μM), induced internalisation of G2A.GFP in over 90% of cells (FIG. 6). Neither LPA, S-1-P or PAF induced G2A internalisation, which is consistent with LPC acting as a specific ligand for G2A. Treatment of HEK 293 G2A.GFP cells with SPC at low concentrations (0.1 μM) induced receptor internalisation in fewer cells (<50%).
HEK 293 G2A.GFP cells were seeded onto glass coverslips and subsequently serum starved for 16-24 hours prior to treatment with lipids. Two hours following lipid treatment, coverslips were washed with cold PBS and fixed with PBS/4% paraformaldehyde. Subcellular localisation of G2A.GFP was visualised under a confocal fluorescence microscope with a 60× oil immersion lens.

[3] = G2A.GFP-transfected MCF 10A cells
[4] = G2A.GFP transfected MCF 10A cells
[5] = PTX 100 ng/ml, 16 hours, G2A.GFP-transfected MCF 10A cells
[6] = BN 52021 200 μM pretreatment, G2A.GFP-transfected MCF 10A cells

CCCCCCCCCCCCCCCCCC(=O)OC[C@@H](O)COP(=O)([O-])OCC[N+](C)(C)C [18:0 LPC]
competition for binding of [3H] 16:0 LPC / [3H] SPC to G2A (G2A [1]): potent competitors

CCCCCCCCCCCCCC(=O)O[C@@H]1[C@@H](C)[C@@]2(O)[C@@H](C=C(CO)C[C@]3(O)C(=O)C(C)=C[C@@H]23)[C@@H]2C(C)(C)[C@]12OC(C)=O [PMA, Phorbol 12-myristate 13-acetate]
effect of pretreatment on [Ca2+]i increases induced by LPA, LPC and SPC (up to 10 μM) (G2A [2]; PMA 100 nM (b23 prints 0.1 mM), 5 minutes, G2A.GFP-transfected MCF 10A cells): abolished; also recorded: inhibits
effect of pretreatment on [Ca2+]i increases induced by PAF (0.1 μM) and ATP (20 μM) (G2A [2]; PMA 100 nM, 5 minutes, G2A.GFP-transfected MCF 10A cells): did not affect

CCCCCCCCCCCCCCCC(=O)OC[C@@H](O)COP(=O)([O-])OCC[N+](C)(C)C [16:0 LPC]
competition for binding of [3H] 16:0 LPC / [3H] SPC to G2A (G2A [1]): potent competitors
desensitisation to subsequent stimulation with LPC or SPC (1 μM) (G2A [2]; [3]): induces desensitisation

lysophosphatidyc acid [LPA]
competition for binding of [3H] 16:0 LPC / [3H] SPC to G2A (G2A [1]): not
transient increase in [Ca2+]i (G2A [2]; [4]): transient elevations
[Ca2+]i response in control cells (MCF 10A cells): transient elevations

CCCCCCCCCCCCC/C=C/[C@@H](O)[C@@H](N)COP(=O)(O)O [S-1-P]
competition for binding of [3H] 16:0 LPC / [3H] SPC to G2A (G2A [1]): not

lysophosphatidylinositol [LPI]
competition for binding of [3H] 16:0 LPC / [3H] SPC to G2A (G2A [1]): not

sphingomyelin [SM]
competition for binding of [3H] 16:0 LPC / [3H] SPC to G2A (G2A [1]): not

Pertussis Toxin [PTX]
effect of pretreatment on [Ca2+]i increases induced by LPA (1 μM), LPC (0.1 μM-5 μM) and SPC (1 μM-5 μM) (G2A [2]; [5]): inhibits
effect of pretreatment on [Ca2+]i increases induced by PAF (0.1 μM) or ATP (20 μM) (G2A [2]; [5]): not

CCCCCCCCCCCCCC(=O)OC[C@@H](O)COP(=O)([O-])OCC[N+](C)(C)C [14:0 LPC]
competition for binding of [3H] 16:0 LPC / [3H] SPC to G2A (G2A [1]): not and not able to compete

CCCCCCCCCCCCC/C=C/[C@@H](O)[C@@H](N)COP(=O)([O-])OCC[N+](C)(C)C [SPC, sphingosylphosphorylcholine]
Kd (G2A [1]; Scatchard analysis, saturation binding of [3H] 16:0 LPC or [3H] SPC, HEK 293 G2A.GFP cell homogenate, 4° C., read-out: dissociation constant (Kd)): 229 nM
competition for binding of [3H] 16:0 LPC / [3H] SPC to G2A (G2A [1]): competed for binding
maximum binding capacity (G2A [1]; saturation binding, HEK 293 G2A.GFP cell homogenate): ~1,840 fmole/10^5 cells
EC50 (G2A [2]; G2A.GFP transfected MCF 10A cells, 1 mM EGTA in buffer, read-out: EC50 of dose-dependent increase in [Ca2+]i): ~400 nM
transient increase in [Ca2+]i (G2A [2]; [4]): induced a transient increase in [Ca^2+], albeit to a lesser extent; also recorded: induce transient [Ca^2+], increases
desensitisation to subsequent stimulation with LPC or SPC (1 μM) (G2A [2]; [3]): induced homologous and heterologous desensitisation; also recorded: induces desensitisation
[Ca2+]i response in control cells (MCF 10A cells): Neither parental or pEXV3 GFP transfected cells responded
cells with internalisation of G2A.GFP (G2A.GFP fusion receptor): < 50%

Nc1ncnc2c1ncn2[C@@H]1O[C@H](COP(=O)(O)OP(=O)(O)OP(=O)(O)O)[C@@H](O)[C@H]1O [ATP]
transient increase in [Ca2+]i (G2A [2]; [4]): transient elevations
[Ca2+]i response in control cells (MCF 10A cells): transient elevations

CCCCCCCCCCCCCCCCOC[C@@H](O)COP(=O)([O-])OCC[N+](C)(C)C [lyso-PAF]
competition for binding of [3H] 16:0 LPC / [3H] SPC to G2A (G2A [1]): not

CC1C(=O)OC2C(O)C34C5CC(C(C)(C)C)C36C(OC(=O)C6O)OC4(C(=O)O5)C12O (stereo not drawn) [BN 52021]
effect of pretreatment on [Ca2+]i increase induced by LPC (1 μM), SPC (1 μM), LPA (1 μM) or ATP (20 μM) (G2A [2]; [6]): not
effect of pretreatment on [Ca2+]i increase induced by PAF (G2A [2]; [6]): completely blocked

CCCCCCCCCCCCCCCCOC[C@H](COP(=O)([O-])OCC[N+](C)(C)C)OC(C)=O [PAF]
competition for binding of [3H] 16:0 LPC / [3H] SPC to G2A (G2A [1]): not
transient increase in [Ca2+]i (G2A [2]; [4]): transient elevations
[Ca2+]i response in control cells (MCF 10A cells): transient elevations
